In patent US20160229835A1, “NOVEL PYRIDYLOXYACETYL TETRAHYDROISOQUINOLINE COMPOUNDS USEFUL AS NAMPT INHIBITORS” (ELI LILLY AND COMPANY, priority 2013, published 2016):

System: A2780 cells
Assay: A2780 Proliferation Assay ±NAM (Nicotinamide)
Format: cell-based
Conditions: Homo sapiens, A2780, 72 h, 10 mM nicotinamide added to the growth medium, read-out: IC50 (proliferation of A2780 cells with 10 mM nicotinamide)
Method: The purpose of this assay is to measure the ability of a compound to inhibit proliferation of A2780 cells (the NCI-DCTD Tumor repository) dependent on the NAMPT-mediated NAD^+ formation in the presence or absence of higher concentrations of NAM (10 mM) in vitro. The A2780 cell proliferation assay uses assay-ready frozen cells. To prepare assay-ready frozen A2780 cells, A2780 cells, an ovarian cancer cell line, are cultured in growth media containing RPMI 1640 (Gibco 30-2001) supplemented with 10% FBS, in T-150 flasks for 3-4 days. Cells are then treated with 4 mL of 0.25% (v/v) trypsin for 1 minute (Hyclone SH30042). Trypsin-treated cells are then diluted with 10 mL of growth media, and the cell slurry is gently mixed and then decanted to a centrifuge tube. Cells are counted and then pelleted by centrifugation at 1400 rpm for 5 minutes. After centrifugation the supernatant is removed and the cell pellets are re-suspended in GIBCO® RECOVERY™ Cell Culture Freezing Medium (Invitrogen 12648-010) at 2-5×10^6 cells/mL and then aliquoted at 1 mL volumes into cryovials. Cryovials are stored initially at −80° C. for 16 hours, and then transferred to liquid nitrogen for long term storage.
One day before the planned initiation of compound treatment portion of the assay, one vial of assay ready frozen cells is thawed, and the cells are washed with 50 mL of growth medium. Cells are counted and then diluted to 2.8×10^4 cells/mL and then plated at a rate of 2500 cells/well (90 μL per well) to BD Poly-D-Lysine, 96 well black plates (BD Biocoat 35-4640). Plates are then covered and incubated overnight under 5% CO2 at 37° C. The next day in a separate plate (V bottom Nunc 249946), a ten-point compound dilution series for each compound is prepared in growth media containing 2% DMSO (v/v, 0.2% final) with or without 100 mM NAM (10 mM final). Then 10 μL of compounds after a ten-point series dilution from either 2 or 0.1 μM (depending potency of each compound) to 50 pM or 5 pM (final) are added to the wells of the cell plates. Cell plates are covered and incubated for 72 hours under 5% CO2 at 37° C.
On the day of the viability assessment, one vial of GF-AFC substrate (CELL TITER-FLUOR™ Cell Viability Assay Kit, Promega G6081) is vortexed and the substrate is transferred to one vial of thawed CELL TITER-FLUOR™ Assay Buffer. The resulting CELL TITER-FLUOR™ reagent is then vortexed well to thoroughly dissolve the substrate. The CELL TITER-FLUOR™ reagent is then diluted (1:2) in growth medium and 50 μL of diluted CELL TITER-FLUOR™ reagent is added to each well of the cell plate. The cell plate is covered and incubated under 5% CO2 at 37° C. for 1-3 hours. Finally the cell plates are removed from the incubator and the well fluorescence is measured on an Envision® Multilabel Reader (Perkin Elmer, λeX 355/λem 495). Fluorescence from compound treated wells is compared to the no cell and no compound treatment control wells to calculate percent inhibition. The percent inhibition and ten-point compound concentration data is fit to a four-parameter logistic equation using ACTIVITYBASE 4.0 Equation 205. Each compound is tested 2-4 times in this assay.

IC50 [nM] | Compound
> 100 | COCCS(=O)(=O)Nc1ccc2c(c1)CCN(C(=O)COc1cccnc1)C2 [Example 2, 2-Methoxy-N-[2-[2-(3-pyridyloxy)acetyl]-3,4-dihydro-1H-isoquinolin-6-yl]ethanesulfonamide]
> 100 | CC(C)(O)CS(=O)(=O)Nc1ccc2c(c1)CCN(C(=O)COc1cccnc1)C2 [Example 1, 2-Hydroxy-2-methyl-N-[2-[2-(3-pyridyloxy)acetyl]-3,4-dihydro-1H-isoquinolin-6-yl]propane-1-sulfonamide]
